Test results as given in US12077503B2, “Substituted cyclic amides and their use as herbicides” (FMC CORPORATION, priority 2015, dated 2024).

Columns and labels:
Assay type in all cases: in vivo
[1] = test system: giant foxtail (Setaria faberi); assay: Test G Post-Emergence Protocol; conditions: Setaria faberi, post-emergence, 312 h, read-out: Foxtail, Giant damage rating; for pest or weed control at 15.625 g/ha: 15.625 g ai/ha, evaluated after 13 days (100=total damage to plant; 0=no damage to plant); for pest or weed control at 62.5 g/ha: 62.5 g ai/ha; for pest or weed control at 62.5 g/ha / pest or weed control at 250 g/ha: evaluated after 13 days, 100=total damage to plant, 0=no damage to plant; for pest or weed control at 250 g/ha: 250 g ai/ha
How it was run: (§1)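 Post-emergence herbicidal damage, scored visually 0–100 at 13 days. Application at 15.625, 62.5 or 250 g/ha onto 8-day-old plants grown under glasshouse control.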

corn (Zea mays) [2] = assay: Test G Post-Emergence Protocol; conditions: Zea mays, post-emergence, 312 h, read-out: Corn damage rating; for plant injury at 15.625 g/ha: 15.625 g ai/ha, evaluated after 13 days (100=total damage to plant; 0=no damage to plant); for plant injury at 62.5 g/ha: 62.5 g ai/ha; for plant injury at 62.5 g/ha / plant injury at 250 g/ha: evaluated after 13 days, 100=total damage to plant, 0=no damage to plant; for plant injury at 250 g/ha: 250 g ai/ha
How it was run: as §1

[3] = test system: velvetleaf (Abutilon theophrasti); assay: Test G Post-Emergence Protocol; conditions: Abutilon theophrasti, post-emergence, 312 h, read-out: Velvetleaf damage rating; for pest or weed control at 15.625 g/ha: 15.625 g ai/ha, evaluated after 13 days (100=total damage to plant; 0=no damage to plant); for pest or weed control at 62.5 g/ha: 62.5 g ai/ha; for pest or weed control at 62.5 g/ha / pest or weed control at 250 g/ha: evaluated after 13 days, 100=total damage to plant, 0=no damage to plant; for pest or weed control at 250 g/ha: 250 g ai/ha
How it was run: as §1

[4] = test system: redroot pigweed (Amaranthus retroflexus); assay: Test G Post-Emergence Protocol; conditions: Amaranthus retroflexus, post-emergence, 312 h, read-out: Pigweed, Redroot damage rating; for pest or weed control at 15.625 g/ha: 15.625 g ai/ha, evaluated after 13 days (100=total damage to plant; 0=no damage to plant); for pest or weed control at 62.5 g/ha: 62.5 g ai/ha; for pest or weed control at 62.5 g/ha / pest or weed control at 250 g/ha: evaluated after 13 days, 100=total damage to plant, 0=no damage to plant; for pest or weed control at 250 g/ha: 250 g ai/ha
How it was run: as §1

[5] = test system: ivy-leaved morning glory (Ipomoea hederacea); assay: Test G Post-Emergence Protocol; conditions: Ipomoea, post-emergence, 312 h, read-out: Morningglory, Ivy-leaved damage rating; for pest or weed control at 15.625 g/ha: 15.625 g ai/ha, evaluated after 13 days (100=total damage to plant; 0=no damage to plant); for pest or weed control at 62.5 g/ha: 62.5 g ai/ha; for pest or weed control at 62.5 g/ha / pest or weed control at 250 g/ha: evaluated after 13 days, 100=total damage to plant, 0=no damage to plant; for pest or weed control at 250 g/ha: 250 g ai/ha
How it was run: as §1

[6] = test system: barnyardgrass (Echinochloa crus-galli); assay: Test G Post-Emergence Protocol; conditions: Echinochloa crus-galli, post-emergence, 312 h, read-out: Barnyardgrass damage rating; for pest or weed control at 15.625 g/ha: 15.625 g ai/ha, evaluated after 13 days (100=total damage to plant; 0=no damage to plant); for pest or weed control at 62.5 g/ha: 62.5 g ai/ha; for pest or weed control at 62.5 g/ha / pest or weed control at 250 g/ha: evaluated after 13 days, 100=total damage to plant, 0=no damage to plant; for pest or weed control at 250 g/ha: 250 g ai/ha
How it was run: as §1

[7] = test system: giant foxtail (Setaria faberi); assay: Test G Pre-Emergence Protocol; conditions: Setaria faberi, pre-emergence, 312 h, evaluated after 13 days; for pest or weed control at 15.625 g/ha: 15.625 g ai/ha; for pest or weed control at 15.625 g/ha / pest or weed control at 250 g/ha: read-out: Foxtail, Giant damage rating (100=total damage to plant; 0=no damage to plant); for pest or weed control at 62.5 g/ha: 62.5 g ai/ha, 100=total damage to plant, 0=no damage to plant, read-out: Foxtail, Giant damage rating; for pest or weed control at 250 g/ha: 250 g ai/ha
How it was run: (§2)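 Herbicidal effect was rated 13 days post-application on a scale where 100 equals total damage. Spraying took place the day after sowing, using 15.625, 62.5 or 250 g/ha of compound in a 50:50 acetone/water solution with 0.5% Tween 20.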

corn (Zea mays) [8] = assay: Test G Pre-Emergence Protocol; conditions: Zea mays, pre-emergence, 312 h, evaluated after 13 days; for plant injury at 15.625 g/ha: 15.625 g ai/ha; for plant injury at 15.625 g/ha / plant injury at 250 g/ha: read-out: Corn damage rating (100=total damage to plant; 0=no damage to plant); for plant injury at 62.5 g/ha: 62.5 g ai/ha, 100=total damage to plant, 0=no damage to plant, read-out: Corn damage rating; for plant injury at 250 g/ha: 250 g ai/ha
How it was run: as §2

[9] = test system: velvetleaf (Abutilon theophrasti); assay: Test G Pre-Emergence Protocol; conditions: Abutilon theophrasti, pre-emergence, 312 h, evaluated after 13 days; for pest or weed control at 15.625 g/ha: 15.625 g ai/ha; for pest or weed control at 15.625 g/ha / pest or weed control at 250 g/ha: read-out: Velvetleaf damage rating (100=total damage to plant; 0=no damage to plant); for pest or weed control at 62.5 g/ha: 62.5 g ai/ha, 100=total damage to plant, 0=no damage to plant, read-out: Velvetleaf damage rating; for pest or weed control at 250 g/ha: 250 g ai/ha
How it was run: as §2

[10] = test system: redroot pigweed (Amaranthus retroflexus); assay: Test G Pre-Emergence Protocol; conditions: Amaranthus retroflexus, pre-emergence, 312 h, evaluated after 13 days; for pest or weed control at 15.625 g/ha: 15.625 g ai/ha; for pest or weed control at 15.625 g/ha / pest or weed control at 250 g/ha: read-out: Pigweed, Redroot damage rating (100=total damage to plant; 0=no damage to plant); for pest or weed control at 62.5 g/ha: 62.5 g ai/ha, 100=total damage to plant, 0=no damage to plant, read-out: Pigweed, Redroot damage rating; for pest or weed control at 250 g/ha: 250 g ai/ha
How it was run: as §2

[11] = test system: ivy-leaved morning glory (Ipomoea hederacea); assay: Test G Pre-Emergence Protocol; conditions: Ipomoea, pre-emergence, 312 h, evaluated after 13 days; for pest or weed control at 15.625 g/ha: 15.625 g ai/ha; for pest or weed control at 15.625 g/ha / pest or weed control at 250 g/ha: read-out: Morningglory, Ivy-leaved damage rating (100=total damage to plant; 0=no damage to plant); for pest or weed control at 62.5 g/ha: 62.5 g ai/ha, 100=total damage to plant, 0=no damage to plant, read-out: Morningglory, Ivy-leaved damage rating; for pest or weed control at 250 g/ha: 250 g ai/ha
How it was run: as §2

[12] = test system: barnyardgrass (Echinochloa crus-galli); assay: Test G Pre-Emergence Protocol; conditions: Echinochloa crus-galli, pre-emergence, 312 h, evaluated after 13 days; for pest or weed control at 15.625 g/ha: 15.625 g ai/ha; for pest or weed control at 15.625 g/ha / pest or weed control at 250 g/ha: read-out: Barnyardgrass damage rating (100=total damage to plant; 0=no damage to plant); for pest or weed control at 62.5 g/ha: 62.5 g ai/ha, 100=total damage to plant, 0=no damage to plant, read-out: Barnyardgrass damage rating; for pest or weed control at 250 g/ha: 250 g ai/ha
How it was run: as §2

## CSc1ccncc1NC(=O)[C@H]1C(=O)N(C)C[C@@H]1c1ccc(C(F)(F)F)cc1 (racemic) [Compound 1749]
[1]
  pest or weed control at 15.625 g/ha: 0%
  pest or weed control at 62.5 g/ha: 0%
  pest or weed control at 250 g/ha: 0%
Corn (Zea mays) [2]
  plant injury at 15.625 g/ha: 0%
  plant injury at 62.5 g/ha: 0%
  plant injury at 250 g/ha: 0%
[3]
  pest or weed control at 15.625 g/ha: 0%
  pest or weed control at 62.5 g/ha: 0%
  pest or weed control at 250 g/ha: 0%
[4]
  pest or weed control at 15.625 g/ha: 0%
  pest or weed control at 62.5 g/ha: 0%
  pest or weed control at 250 g/ha: 0%
[5]
  pest or weed control at 15.625 g/ha: 0%
  pest or weed control at 62.5 g/ha: 0%
  pest or weed control at 250 g/ha: 0%
[6]
  pest or weed control at 15.625 g/ha: 0%
  pest or weed control at 62.5 g/ha: 0%
  pest or weed control at 250 g/ha: 0%
[7]
  pest or weed control at 15.625 g/ha: 0%
  pest or weed control at 62.5 g/ha: 0%
  pest or weed control at 250 g/ha: 0%
Corn (Zea mays) [8]
  plant injury at 15.625 g/ha: 0%
  plant injury at 62.5 g/ha: 0%
  plant injury at 250 g/ha: 0%
[9]
  pest or weed control at 15.625 g/ha: 0%
  pest or weed control at 62.5 g/ha: 0%
  pest or weed control at 250 g/ha: 0%
[10]
  pest or weed control at 15.625 g/ha: 0%
  pest or weed control at 62.5 g/ha: 0%
  pest or weed control at 250 g/ha: 0%
[11]
  pest or weed control at 15.625 g/ha: 0%
  pest or weed control at 62.5 g/ha: 0%
  pest or weed control at 250 g/ha: 0%
[12]
  pest or weed control at 15.625 g/ha: 0%
  pest or weed control at 62.5 g/ha: 0%
  pest or weed control at 250 g/ha: 0%

## CSc1ccncc1NC(=O)[C@H]1C(=O)N(C)C[C@@H]1c1cccc(C(F)(F)F)c1 (racemic) [Compound 1750]
[1]
  pest or weed control at 15.625 g/ha: 0%
  pest or weed control at 62.5 g/ha: 0%
  pest or weed control at 250 g/ha: 50%
Corn (Zea mays) [2]
  plant injury at 15.625 g/ha: 0%
  plant injury at 62.5 g/ha: 10%
  plant injury at 250 g/ha: 10%
[3]
  pest or weed control at 15.625 g/ha: 0%
  pest or weed control at 62.5 g/ha: 0%
  pest or weed control at 250 g/ha: 0%
[4]
  pest or weed control at 15.625 g/ha: 0%
  pest or weed control at 62.5 g/ha: 10%
  pest or weed control at 250 g/ha: 20%
[5]
  pest or weed control at 15.625 g/ha: 0%
  pest or weed control at 62.5 g/ha: 10%
  pest or weed control at 250 g/ha: 10%
[6]
  pest or weed control at 15.625 g/ha: 0%
  pest or weed control at 62.5 g/ha: 0%
  pest or weed control at 250 g/ha: 20%
[7]
  pest or weed control at 15.625 g/ha: 0%
  pest or weed control at 62.5 g/ha: 20%
  pest or weed control at 250 g/ha: 70%
Corn (Zea mays) [8]
  plant injury at 15.625 g/ha: 0%
  plant injury at 62.5 g/ha: 0%
  plant injury at 250 g/ha: 10%
[9]
  pest or weed control at 15.625 g/ha: 0%
  pest or weed control at 62.5 g/ha: 0%
  pest or weed control at 250 g/ha: 0%
[10]
  pest or weed control at 15.625 g/ha: 0%
  pest or weed control at 62.5 g/ha: 0%
  pest or weed control at 250 g/ha: 0%
[11]
  pest or weed control at 15.625 g/ha: 0%
  pest or weed control at 62.5 g/ha: 0%
  pest or weed control at 250 g/ha: 0%
[12]
  pest or weed control at 15.625 g/ha: 0%
  pest or weed control at 62.5 g/ha: 10%
  pest or weed control at 250 g/ha: 10%
